Data on 18 molecules can be found in ChEMBL document CHEMBL2040547, “Synthesis of natural flutimide and analogous fully substituted pyrazine-2,6-diones, endonuclease inhibitors of influenza virus” (J Org Chem, 2001).

The term IC50 denotes the midpoint of a concentration-inhibition curve. A lower IC50 goes with greater potency in that assay.

Each structure is given as a SMILES string. Bounds are passed on as bounds.

The target of this assay is Polymerase acidic protein (Influenza A virus (A/Puerto Rico/8/1934(H1N1)), UniProt P03433). Briefly: Inhibition of cap 1 ALMV primed Influenza transcriptase.
`CC(C)CC1=N/C(=C\c2ccc(F)cc2)C(=O)NC1=O` registered an IC50 above 200 µM.
Under `COCON1C(=O)C(Cc2ccccc2)=N/C(=C\c2ccc(F)cc2)C1=O` stands above 200 µM; under `COCON1C(=O)/C(=C\C(C)C)N(Cc2ccccc2)[C@@H](Cc2ccccc2)C1=O`, above 200 µM; under `COCON1C(=O)C(CC(C)C)=N/C(=C\C(C)C)C1=O`, above 200 µM.
`COCON1C(=O)C(Cc2ccccc2)=N/C(=C\c2ccc(OC)cc2)C1=O` returned an IC50 above 200 µM.
The value for `COCON1C(=O)[C@H]([C@H](O)C(C)C)N(Cc2ccccc2)[C@@H](CC(C)C)C1=O` was above 200 µM; that for `COCON1C(=O)/C(=C/c2ccccc2F)N(Cc2ccccc2)[C@@H](CC(C)C)C1=O` was above 200 µM; that for `COCON1C(=O)C(CC(C)C)=N/C(=C\c2ccccc2F)C1=O` was above 200 µM.
Under `COCON1C(=O)[C@H]([C@@H](O)C(C)C)N(Cc2ccccc2)[C@@H](Cc2ccccc2)C1=O` stands above 200 µM; under `COCON1C(=O)/C(=C\C(C)C)N(Cc2ccccc2)[C@@H](CC(C)C)C1=O`, above 200 µM.
Consider `COCON1C(=O)C(CC(C)C)=N/C(=C\c2ccccc2)C1=O`, for which the IC50 was above 200 µM.
Under `O=C1C(Cc2ccccc2)NC(Cc2ccc(F)cc2)C(=O)N1O` (stereo not drawn) stands 85 µM; under `CC(C)/C=C1\N=C(CC(C)C)C(=O)N(O)C1=O`, 5.1 µM.
In turn, `COCON1C(=O)C(CC(C)C)=N/C(=C\c2cccc(F)c2)C1=O` registered an IC50 above 200 µM.
Consider `COCON1C(=O)[C@H]([C@H](O)C(C)C)N(Cc2ccccc2)[C@@H](Cc2ccccc2)C1=O`, for which the IC50 was above 200 µM.
The molecule `COCON1C(=O)C(Cc2ccccc2)=N/C(=C\C(C)C)C1=O` returned an IC50 above 200 µM.
`COCON1C(=O)C(CC(C)C)=N/C(=C\c2ccc(F)cc2)C1=O`: the IC50 is above 200 µM.
On to `COCON1C(=O)C(CC(C)C)=N/C(=C\c2ccc(OC)cc2)C1=O`, for which the IC50 was above 200 µM.
